In patent US6214846A, “Substituted 3-(benzylamino)piperidine derivatives and their use as therapeutic agents” (Merck Sharp & Dohme Limited, priority 1997, dated 2001):
Structures can show the parent of a compound that is named as a salt.

Target: human NK1 receptor (Homo sapiens, UniProt P25103)
Assay: IC50 at the human NK1 receptor (methods of pages 36 to 39 of WO 93/01165)
Type: binding
Details: test method of WO 93/01165
Method: The exemplified compounds of this invention were tested by the methods set out at pages 36 to 39 of International Patent Specification No. WO 93/01165.

Chain of human NK1 receptor (P25103 whole entry): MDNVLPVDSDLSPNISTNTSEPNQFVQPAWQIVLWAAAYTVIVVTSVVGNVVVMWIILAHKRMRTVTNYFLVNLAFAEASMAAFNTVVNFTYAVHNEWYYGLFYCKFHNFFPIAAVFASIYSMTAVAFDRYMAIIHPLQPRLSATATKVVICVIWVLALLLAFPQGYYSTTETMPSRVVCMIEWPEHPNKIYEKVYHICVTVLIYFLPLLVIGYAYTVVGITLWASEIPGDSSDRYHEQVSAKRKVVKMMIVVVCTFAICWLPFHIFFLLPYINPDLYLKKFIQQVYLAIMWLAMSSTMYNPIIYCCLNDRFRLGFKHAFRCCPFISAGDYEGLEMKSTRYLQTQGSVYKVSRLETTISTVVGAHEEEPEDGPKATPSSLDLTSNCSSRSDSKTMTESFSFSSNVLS

Row | IC50 | SMILES
1 | 0.2 nM | Fc1ccc([C@@H]2NCCC[C@@H]2NCc2cc(OC(F)(F)F)ccc2OC2CC2)cc1 (relative stereo) [Example 3, (±)-(2R3R,2S3S)-N-{[2-Cyclopropoxy-5-(trifluoromethoxy)phenyl]methyl}-2-(4-fluorophenyl)piperidin-3-amine Dihydrochloride]
2 | 0.17 nM | FC(F)(F)Oc1ccc(OC2CC2)c(CN[C@H]2CCCN[C@H]2c2ccccc2)c1 (relative stereo) [Example 1, (±)-(2R3R,2S3S)-N-{[2-Cyclopropoxy-5-(trifluoromethoxy)phenyl]methyl}-2-phenylpiperidin-3-amine Dihydrochloride]
